Measurements reported in patent US5118705A, “Water soluble salts of purpuromycin and pharmaceutical formulations thereof” (Gruppo Lepetit S.p.A., priority 1990, dated 1992).
Converted amounts (≈) assume the structure as drawn. Counter-ions that a name gives are not always drawn. Like-named read-outs stand apart in the source and are kept apart here.

Key:
[1] = test system: Trichomonas vaginalis strain TVL; test: Activity against Trichomonas vaginalis, two-fold tube dilution method; format: cell-based
Procedure: Trichomonas vaginalis (applicant's internal code TVL) was grown on Trichomonas Culture Medium Base (Merck) plus 10% heat treated horse serum. Inoculum: approximately 10^5 organisms/ml. Incubation: 48 hours at 37° C.

[2] = test system: Gardnerella vaginalis ATCC 14018 and other 11 clinical isolates; test: Activity against Gardnerella vaginalis, standard two fold dilution methods; conditions: for Number of strains with MIC of 8 mcg/ml: MIC 8 mcg/ml; for Number of strains with MIC of 32 mcg/ml: MIC 32 mcg/ml
Procedure: The strains were grown on Casman medium (Difco) plus 5% (v/v) whole rabbit blood and 0.15 (v/v) lysed rabbit blood. Inoculum size: approximately 10^4 colony forming units per spot. Incubation in an anaerobic hood: 48 hours at 37° C.

[3] = test system: Haemophilus influenzae ATCC 19418; test: In vitro activity, M.I.C., microbroth dilution; format: cell-based; conditions: salts calculated as weight of purpuromycin; 37° C., 48 h, 5% CO2
Procedure: (§1) MIC were determined by the microbroth dilution test. Bacteria were grown at 37° C., fungi at 30° C. Incubation was for 20 h, except for Propionibacterium acnes, Bacteroides fragilis, Neisseria gonorrhoeae, Haemophilus influenzae (48 h) and Trichophyton mentagrophytes (72h) Neisseria gonorrhoeae and Haemophilus influenzae were incubated in a CO2 -enriched (5%) atmosphere; Propionibacterium acnes and Bacteroides fragilis in an anaerobic hood. Media used were: Oxoid Iso-sensitest broth (Staphylococci, Enterococcus faecalis and Escherichia coli); Difco Todd-Hewitt broth (streptococci); Difco GC base broth with 1% BBL IsoVitaleX (Neisseria gonorrhoeae); Difco Brain-Heart Infusion broth with 1% Difco supplement C (Haemophilus influenzae); Difco Wilkins-Chalgren broth (Propionibacterium acnes and Bacteroides fragilis); Difco Yeast Nitrogen Base broth with 1.5 g/1 asparagine (Candida albicans); Difco Sabouraud-dextrose broth (Trichophyton mentagrophytes). Inocula were approximately 10^4 CFU/ml.

Staph. haemolyticus L602 = test: In vitro activity, M.I.C., microbroth dilution; format: cell-based; conditions: salts calculated as weight of purpuromycin, 37° C., 20 h
Procedure: as §1

[4] = test system: Bacteroides fragilis ATCC 23745; test: In vitro activity, M.I.C., microbroth dilution; format: cell-based; conditions: salts calculated as weight of purpuromycin, 37° C., 48 h, anaerobic hood
Procedure: as §1

Strep. pneumoniae L44 = test: In vitro activity, M.I.C., microbroth dilution; format: cell-based; conditions: salts calculated as weight of purpuromycin; 37° C., 20 h
Procedure: as §1

[5] = test system: Neisseria gonorrhoeae L 997; test: In vitro activity, M.I.C., microbroth dilution; format: cell-based; conditions: salts calculated as weight of purpuromycin, 37° C., 48 h, 5% CO2
Procedure: as §1

[6] = test system: Staph. epidermidis ATCC 12228; test: In vitro activity, M.I.C., microbroth dilution; format: cell-based; conditions: salts calculated as weight of purpuromycin, 37° C., 20 h
Procedure: as §1

[7] = test system: Trichophyton mentagrophytes SKF 17410; test: In vitro activity, M.I.C., microbroth dilution; format: cell-based; conditions: salts calculated as weight of purpuromycin, 30° C., 72 h
Procedure: as §1

[8] = test system: Enterococcus faecalis ATCC 7080; test: In vitro activity, M.I.C., microbroth dilution; format: cell-based; conditions: salts calculated as weight of purpuromycin, 37° C., 20 h
Procedure: as §1

Staph. aureus Tour L 165 = test: In vitro activity, M.I.C., microbroth dilution; format: cell-based; conditions: salts calculated as weight of purpuromycin, 37° C., 20 h
Procedure: as §1

[9] = test system: Propionibacterium acnes ATCC 6919; test: In vitro activity, M.I.C., microbroth dilution; format: cell-based; conditions: salts calculated as weight of purpuromycin, 37° C., 48 h, anaerobic hood
Procedure: as §1

[10] = test system: Escherichia coli SKF 12140; test: In vitro activity, M.I.C., microbroth dilution; format: cell-based; conditions: salts calculated as weight of purpuromycin; 37° C., 20 h
Procedure: as §1

Strep. pyogenes L49 = test: In vitro activity, M.I.C., microbroth dilution; format: cell-based; conditions: salts calculated as weight of purpuromycin, 37° C., 20 h
Procedure: as §1

[11] = test system: Candida albicans SKF 2270; test: In vitro activity, M.I.C., microbroth dilution; format: cell-based; conditions: salts calculated as weight of purpuromycin, 30° C., 20 h
Procedure: as §1

[12] = test system: Trichomonas vaginalis TVL; test: In vitro activity, M.I.C., microtiter trays; format: cell-based; conditions: salts calculated as weight of purpuromycin, 48 h, anaerobic hood, 37° C.
Procedure: MIC were performed in flat-bottomed microtiter trays, with 0.2 ml per well. The medium was TYM modified basal medium (Merck) plus 10% horse serum (treated to inactivate complement). The inoculum was ca. 10^5 organisms/ml; incubation was for 48 h in an anaerobic hood (37° C.).The microtiter wells were read using an inverted light microscope. The MIC was taken as the lowest concentration at which no live (mobile) protozoa were seen.

Gardnerella vaginalis = test: In vitro activity, M.I.C., agar dilution; format: cell-based; conditions: salts calculated as weight of purpuromycin, ATCC 14018 and 10 clinical isolates, all same M.I.C., inoculum ca. 10^5 CFU, 48 h
Procedure: **The assay was carried out on strain ATCC 14018 and 10 clinical isolates
Incubation was for 48 h in an anaerobic hood (37° C.); inoculum ca. 10^5 CFU.

[13] = test system: Candida albicans strain SKF 2270; test: Topical antifungal activity in ovariectomized rats (yeast vaginal infection); format: in vivo, rats (Charles River); conditions: twice daily for three days
Procedure: The effectiveness of the water soluble salts of purpuromycin in the topical treatment of yeast vaginal infection was also tested in ovariectomized rats (Charles River) treated subcutaneously with 4 mg of estradiol benzoate approximately two weeks after ovariectomy. Five days later they were inoculated intravaginally with approximately 5×10^6 colony forming units (CFU) of Candida albicans strain SKF 2270 in 25 microliters of Nutrient Broth (no.2, Oxoid) containing 15% (vol/vol) of glycerol. Topical intravaginal therapy was twice daily for three days, starting one day after infection, with 100 microliters of a water soluble salt of purpuromycin suspension in a mixture of 10:90 DMSO-polyethylene glycol 400, corresponding to 2 or 5 mg/rat/treatment. The day after the last treatment, vaginal smear samples (calibrated 10 microliter loops) were diluted and plated for viable organism counts on Sabouraud agar (Difco). Each group contained 10 animals.

[14] = Solubility and pH of solution; format: physicochemical
[15] = test system: Candida albicans ATCC 10231; test: Activity against Candida strains, two-fold dilution method; format: cell-based; conditions: Candida albicans, ATCC10231, 20 h; comparative tests, antibacterial agents; read-out: M.I.C.
Procedure: (§2) This set of experiments included also one strain each of two other Candida species, Candida tropicalis and Candida kruzei. The M.I.C. were determined by the two-fold dilution method in buffered (0.01 M phosphate buffer, pH 7.4) yeast nitrogen base medium (Difco) supplemented with 1.5 g/liter asparagine in microtiter trays. Inocula were approximately 10^4 colony forming units/ml. Incubation was for 20 h at 30° C. Purpuromycin was dissolved in DMSO and added to the cultures as above.

[16] = test system: Candida albicans SKF 2270; test: as above; format: cell-based; conditions: Candida albicans, SKF2270, 20 h; comparative tests, antibacterial agents; read-out: M.I.C.
Procedure: as §2

[17] = MIC >128 mcg/ml, 12 strains tested

In the case of `C[C@@H]1[C@H](O)[C@@H](C)/C=C/C=C/C=C/C=C/C=C/C=C/C=C/[C@H](O[C@@H]2O[C@H](C)[C@@H](O)[C@H](N)[C@@H]2O)C[C@@H]2O[C@](O)(C[C@@H](O)C[C@@H](O)[C@H](O)CC[C@@H](O)C[C@@H](O)CC(=O)O[C@H]1C)C[C@H](O)[C@H]2C(=O)O` [Amphotericin B], the MIC ([1]; Trichomonas vaginalis, 48 h) is reported as 64 µg/mL (≈ 69.3 µM).
For `Clc1ccccc1C(c1ccccc1)(c1ccccc1)n1ccnc1` [Clotrimazole], the “Number of strains with MIC of 8 mcg/ml” value ([2]; 12 strains tested) was 2 strains, the “Number of strains with MIC of 16 mcg/ml” value ([2]; MIC 16 mcg/ml, 12 strains tested) was 1 strains and the “Number of strains with MIC of 32 mcg/ml” value ([2]; 12 strains tested) was 2 strains. The “Number of strains with MIC of >128 mcg/ml” value (shortened to “Number … of >128 mcg/ml”) [2, 17] was 2 strains and the MIC ([1]; Trichomonas vaginalis, 48 h) was 64 µg/mL (≈ 186 µM).
For `CC(=O)N1CCN(c2ccc(OCC3COC(Cn4ccnc4)(c4ccc(Cl)cc4Cl)O3)cc2)CC1` (stereo not drawn) [Ketoconazole], the MIC ([1]; Trichomonas vaginalis, 48 hours at 37° C., read-out: MIC) was > 128 µg/mL.
In the case of `Clc1ccc(COC(Cn2ccnc2)c2ccc(Cl)cc2Cl)c(Cl)c1` (stereo not drawn) [Miconazole], the MIC ([2]; Gardnerella vaginalis, read-out: MIC on resistant strains) is reported as > 128 µg/mL, the “Number of strains with MIC of 4 mcg/ml” value ([2]; MIC 4 mcg/ml, 12 strains tested) is reported as 1 strains and the “Number of strains with MIC of 8 mcg/ml” value ([2]; 12 strains tested) is reported as 7 strains. For the same molecule, the “Number of strains with MIC of 32 mcg/ml” value ([2]; 12 strains tested) was 2 strains, the “Number … of >128 mcg/ml” value [2, 17] was 2 strains and the MIC ([1]; Trichomonas vaginalis, 48 h) was 32 µg/mL (≈ 76.9 µM).
With `C[C@@H]1[C@H](O)[C@@H](C)/C=C/C=C/CC/C=C/C=C/C=C/C=C/C(O[C@H]2O[C@H](C)[C@@H](O)[C@H](N)[C@@H]2O)CC2O[C@](O)(CC(O)C(O)CCC(O)CC(O)CC(O)CC(=O)O[C@H]1C)CC(O)C2C(=O)O` (stereo partly drawn) [Nystatin] the “Number … of >128 mcg/ml” value [2] was 12 strains, the “MIC on resistant strains” value ([2]; strains resistant to the named drug) was > 128 micrograms/ml and the MIC ([1]; 48 hours at 37° C.) was > 128 µg/mL.
`COC(=O)c1cc2cc3c(c(O)c2c(=O)o1)OC1(Cc2c(O)c4c(c(O)c2O1)C(=O)C(OC)=CC4=O)CC3O` [Purpuromycin salt with L-lysine (1:1.5), Salt of purpuromycin with L-lysine] showed a M.I.C. [3] of 0.13 mg/L, an MIC (Staph. haemolyticus L602; Staphylococcus haemolyticus, L602) of 0.06 µg/mL and an MIC ([4]; Bacteroides fragilis, ATCC23745) of 0.13 µg/mL. For the same molecule, the M.I.C. (Strep. pneumoniae L44) was 0.13 mg/L, the MIC ([5]; Neisseria gonorrhoeae, L997) was 0.06 µg/mL and the MIC ([6]; Staphylococcus epidermidis, ATCC12228) was 0.06 µg/mL. It also gave an MIC ([7]; Trichophyton mentagrophytes, SKF17410) of 1 µg/mL, an MIC ([8]; Enterococcus faecalis, ATCC7080) of 0.06 µg/mL and an MIC (Staph. aureus Tour L 165; Staphylococcus aureus, TOURL165) of 0.06 µg/mL. The MIC ([9]; Cutibacterium acnes, ATCC6919) was 0.06 µg/mL, the M.I.C. [10] was 32 mg/L and the MIC (Strep. pyogenes L49; Streptococcus pyogenes, L49) was 0.06 µg/mL. It also gave an MIC ([11]; Candida albicans, SKF2270) of 1 µg/mL, an MIC ([12]; Trichomonas vaginalis) of 4 µg/mL and an MIC (Gardnerella vaginalis; Gardnerella vaginalis) of 16 µg/mL. The “Mean log10 CFU/smear sample ± SD” value ([13]; 2 mg/rat/treatment intravaginal, vehicle 3.87 ± 0.50, P < 0.01 vs group 1 controls) was 2.60 ± 0.49 log10 CFU/smear sample, the “numbers of viable yeasts cell/sample” value ([13]; topical intravaginal) was “significantly reduced numbers of viable yeasts cell/sample” and the “pH value of a 0.5% (w/v) solution” value ([14]; distilled water) was 8.5. For the same molecule, the “solubility in distilled water” value ([14]; room temperature, calculated as purpuromycin, listed as Example 2) was 7400 µg/mL.
In the case of `COC(=O)c1cc2cc3c(c(O)c2c(=O)o1)OC1(Cc2c(O)c4c(c(O)c2O1)C(=O)C(OC)=CC4=O)CC3O` (stereo not drawn) [Purpuromycin salt with TRIS (1:1.5), Salt of purpuromycin with tris-(hydroxymethyl) aminomethane], the M.I.C. [3] is reported as 0.06 mg/L, the M.I.C. (Staph. haemolyticus L602) is reported as 0.06 mg/L and the M.I.C. [4] is reported as 0.13 mg/L. For the same molecule, the M.I.C. (Strep. pneumoniae L44) was 0.13 mg/L, the M.I.C. [5] was 0.06 mg/L and the M.I.C. [6] was 0.06 mg/L. The M.I.C. [7] was 1 mg/L, the M.I.C. [8] was 0.06 mg/L and the M.I.C. (Staph. aureus Tour L 165) was 0.06 mg/L. The M.I.C. [9] was 0.06 mg/L, the M.I.C. [10] was 16 mg/L and the M.I.C. (Strep. pyogenes L49) was 0.06 mg/L. For the same molecule, the M.I.C. [11] was 1 mg/L, the M.I.C. [12] was 4 mg/L and the M.I.C. (Gardnerella vaginalis) was 16 mg/L. For the same molecule, the “pH value of the solution” value ([14]; solution at 4.5 mg/ml in distilled water) was 8.8 and the solubility ([14]; water, room temperature, calculated as purpuromycin, read-out: solubility in distilled water) was 4500 µg/mL.
In the case of `CC1(C)S[C@@H]2[C@H](NC(=O)[C@H](N)c3ccccc3)C(=O)N2[C@H]1C(=O)O` [ampicillin], the MIC [15] is reported as > 128 µg/mL and the MIC [16] is reported as > 128 µg/mL.
